# Where two headings read alike, the source gives them in different places.
# T1: VEGFR3 (UniProt P35916 25-776, limits assumed)
# T1 sequence (looked up): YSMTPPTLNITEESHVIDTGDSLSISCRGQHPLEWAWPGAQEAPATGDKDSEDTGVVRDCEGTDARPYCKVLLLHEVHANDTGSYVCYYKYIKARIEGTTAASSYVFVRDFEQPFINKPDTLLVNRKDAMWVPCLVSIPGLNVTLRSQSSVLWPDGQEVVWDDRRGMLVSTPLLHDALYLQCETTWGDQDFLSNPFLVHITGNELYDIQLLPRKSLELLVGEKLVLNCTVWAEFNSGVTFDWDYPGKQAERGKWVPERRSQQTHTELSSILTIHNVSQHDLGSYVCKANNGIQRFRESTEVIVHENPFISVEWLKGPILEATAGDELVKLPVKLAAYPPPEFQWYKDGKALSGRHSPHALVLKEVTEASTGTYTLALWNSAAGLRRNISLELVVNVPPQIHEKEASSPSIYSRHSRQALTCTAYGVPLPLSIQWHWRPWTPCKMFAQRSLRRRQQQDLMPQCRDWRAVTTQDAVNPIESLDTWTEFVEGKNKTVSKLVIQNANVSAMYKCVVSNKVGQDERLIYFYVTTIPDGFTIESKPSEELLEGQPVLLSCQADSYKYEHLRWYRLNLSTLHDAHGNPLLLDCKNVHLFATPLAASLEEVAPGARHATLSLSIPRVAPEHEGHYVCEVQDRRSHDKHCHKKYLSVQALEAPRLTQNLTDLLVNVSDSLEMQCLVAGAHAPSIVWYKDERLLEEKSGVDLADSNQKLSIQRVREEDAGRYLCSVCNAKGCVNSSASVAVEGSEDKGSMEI
# B1: recombinant VEGF222/NF protein produced in HEK293 cells by ProteoGenix (ligand)
# chain: GSHHHHHHSGLEVLFQGPAPMAEGGGQNHHEVVKFMDVYQRSYCHPIETLVDIFQEYPDEIEYIFKPSCVPLMRCGGCCNDEGLECVPTEESNITMQIMRIKPHQGQHIGEMSFLQHNKCECRPKKDRARQENPCGPCSERRKHLFVQDPQTCKCSCKNTDSRCKARQLELNERTCSLCFPFPSDVTSRGGEPGRRKEPPSGFREPDLSPGKTDTERSIQKPRCRHHTITIDRTVLNPET
# notes: also called VEGF222 New Form; rVEGF222/NF
# B2: VEGF165: conventional pro-angiogenic VEGF isoform, recombinant, used as comparator (protein)
# chain: APMAEGGGQNHHEVVKFMDVYQRSYCHPIETLVDIFQEYPDEIEYIFKPSCVPLMRCGGCCNDEGLECVPTEESNITMQIMRIKPHQGQHIGEMSFLQHNKCECRPKKDRARQENPCGPCSERRKHLFVQDPQTCKCSCKNTDSRCKARQLELNERTCRCDKPRR
# Columns and labels:
# 786-O cells = assay: RT-qPCR of VEGF and VEGF222/NF in 786-O cells transduced with shRNA; assay type: cell-based
# Text: (§1) For these constructs, the C-terminal V5-tag was not in frame. To generate lentiviral shRNA plasmids, pLKO.1-TRC cloning vector, a kind gift from David Roots, has been used. pLKO.1-TRC contains a 1.9 kb stuffer released by Agel and EcoRI digestion. shRNA oligos were annealed and ligated into the Agel and EcoRI sites in place of the stuffer. The following shRNA sequences were used: shScramble: 5′-[…]-3′ (SEQ ID NO: 26); shVEGF #1: 5′-[…]-3′ (SEQ ID NO: 27) shVEGF #2: 5′-[…]-3′ (SEQ ID NO: 28); shVEGFNF #1: 5′-[…]-3′ (SEQ ID NO: 29); shVEGFNF #2: 5′-[…]-3′(SEQ ID NO: 30); shNRP1: 5′-[…]-3′(SE ID NO: 31); shNRP2: 5′-[…]-3 (SEQ ID NO: 32)′. All plasmids were verified by Sanger sequencing (Eurofins Genomics).
# (§2) Lentivirus were produced by triple transfection of HEK-293T cells with a lentiviral transfer vector (pLenti6.3 for overexpression experiments and pLKO.1 for shRNA experiments), and the packaging plasmids psPAX2 and pMD2.G at a 0.3:0.3:0.1 ratio. Transfection was performed using JetPEI® reagent as recommended by the manufacturer Polyplus transfection. The viral supernatant was collected 48 hours following transfection, filtered through a 0.22 μm filter, and added to target cells.
# (§3) RT-PCR and RT-qPCR analyses were carried out on human tissue mRNA (BIOCHAIN®) and on cancer cell lines. mRNAs were prepared with a Nucleospin RNA kit (Macherey-Nagel), and cDNA synthesis was performed with a Maxima First Strand CDNA Synthesis Kit for RT-qPCR, with dsDNase (Fischer scientific), according to the manufacturers' instructions.
# (§4) PCR analysis was performed on Biometra thermal cycler with PrimeSTAR GXL DNA polymerase (Takara Bio). Quantitative PCR analysis was performed on Applied Biosystems StepOnePlus™ System with TB Green® premix Ex Taq™ (Tli RNase H Plus) (Takara Bio) reagents. All samples were assayed in triplicate. Relative expression levels were determined with the dCt method and normalized to the 36B4 reference gene.
# ACHN cells [1] = assay: RT-qPCR of VEGF and VEGF222/NF in ACHN cells transduced with shRNA; assay type: cell-based
# Text: as §1, §2, §3, §4
# metastatic ccRCC = assay: PFS and OS of metastatic (M1) ccRCC patients treated by sunitinib, grouped by plasma VEGF222/NF; assay type: in vivo, human
# Procedure: Informed consent was obtained from all individual participants included in the study. All patients gave written consent for the use of tumor and blood samples for research. This study was conducted in accordance with the Declaration of Helsinki. Primary tumor samples of 93 non-metastatic (M0) ccRCC patients were obtained from the Rennes and Bordeaux University Hospitals (UroCCR group, NCT03293563). For metastatic patients, the population of the study included 47 ccRCC patients from the prospective SUVEGIL (NCT00943839) and TORAVA (NCT00619268) trials and from a retrospective cohort from Pavia (Italy).
# Informed consent was obtained from all individual participants included in the study. All patients gave written consent for the use of tumor and blood samples for research. This study was conducted in accordance with the Declaration of Helsinki. Primary tumor samples of 93 non-metastatic (M0) ccRCC patients were obtained from the Rennes and Bordeaux University Hospitals (UroCCR group, NCT03293563). For metastatic patients, the population of the study included 47 ccRCC patients from the prospective SUVEGIL (NCT00943839) and TORAVA (NCT00619268) trials and from a retrospective cohort from Pavia (Italy). Metastatic patients received oral sunitinib (50 mg per day) once a day for 4 weeks (on days 1 to 28), followed by 2 weeks of treatment interruption. Sunitinib was continued in the absence of disease progression or unacceptable toxicity. Blood samples were collected before the beginning of the treatment (TO). Blood samples were centrifuged (10 000 g for 10 min) and the plasmas were collected and conserved at −80° C. Plasmatic levels of VEGF and VEGF222/NF were determined by ELISA as described in the ELISA method details section. PFS and OS were calculated from patient subgroups with VEGFA or VEGF222/NF plasmatic levels that were less or greater than the third quartile value.
# Statistical analysis was carried out using GraphPad Prism 8. Data were expressed as mean±SEM and were compared using an unpaired Mann-Whitney test for intergroup analysis. For patients: The Student's t-test was used to compare continuous variables and chi-square test, or Fisher's exact test (when the conditions for use of the χ2-test were not fulfilled), were used for categorical variables. DFS was defined as the time from surgery to the appearance of metastasis. PFS was defined as the time between surgery and progression, or death from any cause, censoring live patients and progression free at the last follow-up. OS was defined as the time between surgery and the date of death from any cause, censoring those alive at the last follow-up. The Kaplan-Meier method was used to produce survival curves and analyses of censored data were performed using Cox models. Significance was defined as P<0.05.
# The detrimental effects of VEGF222/NF in immunodeficient mice and zebrafish models prompted us to analyze the prognostic impact of its plasmatic levels in comparison to plasmatic VEGF level on a cohort of 47 metastatic (M1) ccRCC patients treated by sunitinib. The third quartile was used as the cut-off to determine patients' groups, respectively 4500 […] for VEGF and VEGF222/NF. […] However, patients with high plasmatic levels of both VEGF222/NF and VEGF had the shortest PFS (FIG. 14). […] Whereas VEGF was not associated with a significant effect on OS, high expression of VEGF222/NF WAS synonymous of a shorter overall survival (OS) in M1 patients (FIGS. 13C,D).
# VEGFR1 = target: T2, VEGFR1 (UniProt P17948 27-756, limits assumed); assay: saturation binding experiment
# T2 construct: also called VEGFR1/Flt1
# VEGFR3 = target: T1, VEGFR3; assay: saturation binding experiment
# VEGFR2 = target: T3, VEGFR2 (UniProt P35968 20-764, limits assumed); assay: saturation binding experiment
# T3 construct: also called VEGFR2/KDR
# [2] = In vivo […] plug assay (hemoglobin content); design: species or system mice; details: 200 ng in 200 μL MATRIGEL, two weeks
# Procedure: A″) VEGF222/NF induces phosphorylation of VEGFR2 and activation of the downstream signaling pathways AKT and ERK. […] Cells were washed with PBS and lyzed with Laemmli buffer. Immuno blots were performed with the indicated antibodies. […] Cells were counted for 7 days. […] D) Wound closure was determined at 3 h, 6 h, 9 h and 12 h following treatment. E) In vitro permeability assay. […] Streptavidin-HRP was then added to the transwell for 10 minutes and TMB substrate was added in the lower compartment to assess permeability. F) In vivo permeability assay. […] After 20 minutes, ears were recovered, and the amount of Evans blue was determined by colorimetry (top panel). […] G) In vivo plug assay. […] Representative photographs of the […]® plug 15 days after implantation (bottom panel).
# 6-weeks old female NMRI mice (n=15) were used for this experiment. […] […]® plugs were recovered after two weeks for hemoglobin quantity analysis. Plugs hemoglobin content was assessed with the hemoglobin assay kit (Sigma Aldrich) and experiments were conducted according to the manufacturer recommendations. Results are expressed in micrograms of hemoglobin per milligram of […]®.
# ACHN cells [3] = assay: Proliferation of ACHN cells overexpressing VEGF165 or VEGF222/NF; assay type: cell-based; details: overexpression in ACHN cells, versus LacZ
# Procedure: FIG. 6. VEGF222/NF promotes the proliferation and the survival of RCC cells. […] Cells were counted for 7 days. ***P<0.001 vs LacZ. D-E) RT-qPCR analysis of the expression of VEGF222/NF and VEGF in ACHN (D) and in 786-O (E) cells transduced with pLKO.1 expressing shVEGF165 or shVEGF222/NF. *P<0.05. **P<0.01, ***P<0.001 vs Scramble.
# For endothelial cell proliferation assays, TIME or HDLECs cells (50.000 and 25.000, respectively) were seeded in 6-well plates in Endothelial Cell Growth Medium (Promocell) containing 0.5% FBS. […] Results were expressed as fold increase considering day 0 as the reference. For ACHN proliferation, ACHN-LacZ, ACHN-VEGF165, ACHN-VEGF222/NF cells were seeded (20.000) in 6-well plates in DMEM medium containing 0.5% FBS. Cells were counted at day 0, 1, 3, 5 and 7. Results are expressed as fold increase considering day 0 as the reference.
# [4] = 786-O cells, pLKO.1 lentiviral transduction
# [5] = ACHN cells, pLKO.1 lentiviral transduction
# T2 sequence (P17948 27-756 limits assumed): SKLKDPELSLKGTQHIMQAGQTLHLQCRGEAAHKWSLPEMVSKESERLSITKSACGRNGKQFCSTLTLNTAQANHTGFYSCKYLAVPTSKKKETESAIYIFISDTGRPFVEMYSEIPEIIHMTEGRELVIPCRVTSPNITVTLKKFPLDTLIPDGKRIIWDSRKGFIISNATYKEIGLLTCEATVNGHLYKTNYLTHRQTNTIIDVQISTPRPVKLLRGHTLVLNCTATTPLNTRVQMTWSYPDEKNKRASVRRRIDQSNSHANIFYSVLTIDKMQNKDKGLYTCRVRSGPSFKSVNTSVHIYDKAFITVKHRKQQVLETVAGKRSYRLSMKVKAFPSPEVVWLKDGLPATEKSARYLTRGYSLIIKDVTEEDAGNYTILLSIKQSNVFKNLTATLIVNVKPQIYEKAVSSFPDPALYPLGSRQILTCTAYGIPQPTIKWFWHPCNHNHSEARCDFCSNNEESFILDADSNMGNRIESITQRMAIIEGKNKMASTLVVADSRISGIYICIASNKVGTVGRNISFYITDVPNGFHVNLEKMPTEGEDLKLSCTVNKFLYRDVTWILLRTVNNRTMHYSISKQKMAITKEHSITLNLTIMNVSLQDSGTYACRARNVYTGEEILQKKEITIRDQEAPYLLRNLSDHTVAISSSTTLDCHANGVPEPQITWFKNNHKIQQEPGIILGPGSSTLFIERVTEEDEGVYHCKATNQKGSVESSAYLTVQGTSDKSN
# T3 sequence (P35968 20-764 limits assumed): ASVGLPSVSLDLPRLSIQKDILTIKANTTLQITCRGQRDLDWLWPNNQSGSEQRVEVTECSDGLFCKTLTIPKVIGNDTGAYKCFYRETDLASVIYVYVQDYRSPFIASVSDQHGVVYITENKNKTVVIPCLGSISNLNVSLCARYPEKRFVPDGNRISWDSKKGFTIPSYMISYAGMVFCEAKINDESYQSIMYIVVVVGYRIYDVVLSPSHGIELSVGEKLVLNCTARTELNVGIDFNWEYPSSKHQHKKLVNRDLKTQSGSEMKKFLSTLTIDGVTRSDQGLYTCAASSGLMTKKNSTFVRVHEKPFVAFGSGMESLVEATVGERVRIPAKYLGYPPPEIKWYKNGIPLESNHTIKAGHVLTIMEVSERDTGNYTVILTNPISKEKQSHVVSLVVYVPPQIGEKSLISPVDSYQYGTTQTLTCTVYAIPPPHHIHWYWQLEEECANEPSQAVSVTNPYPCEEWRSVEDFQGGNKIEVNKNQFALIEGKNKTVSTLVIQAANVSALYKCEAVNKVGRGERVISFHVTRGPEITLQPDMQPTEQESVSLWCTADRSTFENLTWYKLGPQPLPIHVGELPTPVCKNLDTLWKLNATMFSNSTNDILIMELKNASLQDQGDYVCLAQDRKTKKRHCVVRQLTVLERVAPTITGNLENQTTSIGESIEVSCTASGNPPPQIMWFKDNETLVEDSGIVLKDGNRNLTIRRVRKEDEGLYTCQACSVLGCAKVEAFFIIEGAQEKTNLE
molecule,measurement,setting,value
5′-AGGGCAGAATCATCACGAAGT-3′ (expressed or natural sequence) [shRNA #2],expression of the respective target (VEGF or VEGF222/NF),786-O cells; [4],downregulated the expression of their respective targets
same,expression of the respective target (VEGF or VEGF222/NF),ACHN cells [1]; [5],downregulated the expression of their respective targets
5′-CATITCCCTCAGATGTGACAA-3′ (CATTTCCCTCAGATGTGACAA; chemistry not given here) [shRNA NF #2],expression of the respective target (VEGF or VEGF222/NF),786-O cells,downregulated the expression of their respective targets
same,expression of the respective target (VEGF or VEGF222/NF),ACHN cells [1],downregulated the expression of their respective targets
5′-GCCTTTGTITTCCATTTCC-3′ (GCCTTTGTTTTCCATTTCC; chemistry not given here) [shRNA NF #1],expression of the respective target (VEGF or VEGF222/NF),786-O cells,downregulated the expression of their respective targets
same,expression of the respective target (VEGF or VEGF222/NF),ACHN cells [1],downregulated the expression of their respective targets
5′-GCGCAAGAAATCCCGGTATAA-3′ (expressed or natural sequence) [shRNA #1],expression of the respective target (VEGF or VEGF222/NF),786-O cells; [4],downregulated the expression of their respective targets
same,expression of the respective target (VEGF or VEGF222/NF),ACHN cells [1]; [5],downregulated the expression of their respective targets
CCN(CC)CCNC(=O)c1c(C)[nH]c(/C=C2\C(=O)Nc3ccc(F)cc32)c1C [sunitinib],Death %,metastatic ccRCC; High VEGF222/NF,83%
same,OS (months),metastatic ccRCC; High VEGF222/NF,13 months
same,PFS (months),metastatic ccRCC; High VEGF222/NF,5 months
same,progression %,metastatic ccRCC; High VEGF222/NF,83%
same,Death %,metastatic ccRCC; Low VEGF222/NF,68%
same,OS (months),metastatic ccRCC; Low VEGF222/NF,37 months
same,PFS (months),metastatic ccRCC; Low VEGF222/NF,15 months
same,progression %,metastatic ccRCC; Low VEGF222/NF,76%
same,Death %,metastatic ccRCC; Total,75%
same,OS (months),metastatic ccRCC; Total,33 months
same,progression %,metastatic ccRCC; Total,82%
same,PFS (months),"metastatic ccRCC; Total, 47 M1 ccRCC patients",12 months
B1,Kd,VEGFR1,1.12 nM
same,Kd,VEGFR3,10.4 nM
same,Kd,VEGFR2,0.73 nM
B2,reddish aspect and hemoglobin content of plugs,[2],equivalent
same,ACHN cell proliferation,ACHN cells [3],stimulated ACHN cell proliferation

# Reference: patent US20250346642A1, “NEW SPLICE VARIANT ISOFORM OF VEGF” (CENTRE NATIONAL DE LA RECHERCHE SCIENTIFIQUE (CNRS), priority 2020, published 2025)
